Test results taken from patent EP1013282A2, “Pharmaceutical and foodstuff compositions containing transferrins and antibacteral agents for potentiating host defence activity and the treatment of infections” (priority 1992, dated 1993).

Experiments:
Proteus vulgaris OX.8 = assay: Intraperitoneal Proteus vulgaris infection in mice: oral β-lactam with or without oral lactoferrin (Example 4); format: in vivo; conditions: for ED50: ddY mice n=6, survivors at one week; for simultaneous administration with lactoferrin reduced the ED50s to: fraction of ED50 of antibiotic alone, lactoferrin 0.5 mg/mouse
Method: Example 4-The efficacy potentiation of lactoferrin was examined using mice infected with Proteus vulgaris OX.8. Each group of six mice, strain ddY, four weeks old, were intraperitoneally infected with P. vulgaris suspended in 3% gastric mucin at a dose of 2 x 10^6 cells per mouse. One hour after the injection, lactoferrin (0.5 mg/mouse) was orally given simultaneously with cephalosporins. […]
Consequently, the efficacy potentiation of cephalosporin due to simultaneous treatment with lactoferrin is not restricted merely to the pathogens belonging to the genus Escherichia and Klebsiella, but also includes Proteus.

[1] = tested on: Proteus mirabilis strain 1287; assay: Upper urinary tract infection in mice, kidney colony count (Example 9); format: in vivo; conditions: for colony count ratio, lactoferrin (+) to (-): Lactoferrin (+) relative to Lactoferrin (-)
Text: Example 9-Male ICR mice, five weeks old, were dehydrated overnight, and Proteus mirabilis strain 1287 was inoculated into the bladder at a dose of 2 x 10^5 CFU per mouse. In order for the pathogen to colonize the kidneys, the urethra was closed by a clip for four hours. Ampicillin was orally given to the mice twice daily (10:00 am and 7:00 pm) for two consecutive days with or without oral lactoferrin therapy. On day 3 all mice were sacrificed and the kidneys were dissected ascetically. The kidneys were homogenized in sterile saline and the homogenate was spread over nutrient agar plates to determine the numbers of colonizing bacteria. […]

[2] = tested on: Escherichia coli strain c-11; assay: Intraperitoneal E. coli infection in mice: oral cephalosporin with or without oral lactoferrin (Example 3); format: in vivo; conditions: for ED50: ddY mice n=6, survivors at one week; for ED50s reduced by simultaneous administration of lactoferrin to: fraction of ED50 of antibiotic alone, lactoferrin 1 mg/mouse
Method: Example 3-groups of six male mice strain ddY, four weeks old, were used in this experiment. They were intraperitoneally infected with 3% mucin suspension of Escherichia coli strain c-11 at a dose of 1 X 10^6 cells per mouse. Oral cephalosporin antibiotic was administered one hour after the injection simultaneously with bovine milk lactoferrin (26% iron saturation), 1 mg/mouse. Each control was given cephalosporin alone. The mice were observed one week after the injection and survivors were regarded as completely cured. […]

Escherichia coli c 11 [3] = assay: Optimal dose of lactoferrin with cefaclor in E. coli infected mice (Example 6); format: in vivo; conditions: Lactoferrin dose 0.000 (cefaclor alone)
Method: Example 6-Optimal dose of lactoferrin was studied using mice strain ddY (n=6), four weeks old. The mice were intraperitoneally infected with Escherichia coli c 11 at a dose of 1 x 10^6 cells per mouse, and they were treated once orally with a mixture of lactoferrin and cefaclor one hour after the injection.

Escherichia coli c 11 [4] = assay: Timing of lactoferrin administration with cefaclor in E. coli infected mice (Example 7); format: in vivo; conditions: control (no lactoferrin)
Text: Example 7-The timing of lactoferrin administration is very important not only from a clinical point of view, but also from an economical point of view, since it indicates whether or not the treatment with lactoferrin is prophylactic, or curative, or both. The timing was studied using the same model as described in Example 6. Cefaclor was orally given one hour after injection of the bacteria. […]

[5] = Serum concentrations of cephalosporins with or without lactoferrin, bioassay with Bacillus subtilis (Experimental Example 2)
Method: Experimental Example 2-The effect of lactoferrin on intestinal absorption of cephalosporin antibiotics was studied using male ddY mice (n=6), five weeks old.
The cephalosporin antibiotics used were cephalexin, cefixime, cefaclor and cefroxazine, and the serum , concentrations were determined by bioassay using Bacillus subtilis. The doses of the antibiotics and lactoferrin were 0.5 mg per mouse of each.

Escherichia coli c 11 [6] = assay: Intraperitoneal E. coli infection in mice: other chemotherapies with or without lactoferrin (Example 5); format: in vivo; conditions: for ED50: gentamicin subcutaneous, ddY mice n=6; for potentiation of efficacy of the chemotherapy by lactoferrin: lactoferrin 0.5 mg/mouse oral, in vivo
Text: Example 5-The antimicrobial activities of chemotherapies were compared with or without lactoferrin treatment. The antimicrobial agents used were new quinolones, aminoglycoside antibiotic, gentamicin, erythromycin, chloramphenicol and minocycline. The efficacy was compared between the controls and lactoferrin groups. Mice strain ddY, four weeks old, were randomly allocated into groups (n=6) and intraperitoneally infected with Escherichia coli c 11 at a dose of 1 x 10^6 cells per mouse. One hour after the injection the chemotherapies and lactoferrin (0.5 mg/mouse) were simultaneously given orally except gentamicin was given subcutaneously since it is unabsorable from the intestinal tract. Evaluation of potentiation of the chemotherapies by lactoferrin is the same as described above. […]

[7] = antibiotic alone (Lactoferrin -), oral one hour after infection
[8] = antibiotic with Lactoferrin + (0.5 mg/mouse, oral, simultaneous)
[9] = antibiotic with Lactoferrin + (bovine milk lactoferrin 1 mg/mouse, oral, simultaneous)
[10] = mice, oral, lactoferrin simultaneously, blood withdrawn periodically
[11] = agent alone (Lactoferrin -), oral, one hour after infection
[12] = agent with Lactoferrin + (0.5 mg/mouse oral, simultaneous)

Compound | ED50 (Proteus vulgaris OX.8; [7]) | ED50 (Proteus vulgaris OX.8; [8]) | simultaneous administration with lactoferrin reduced the ED50s to (Proteus vulgaris OX.8) | ED50 [2, 7] | ED50 [2, 9] | ED50s reduced by simultaneous administration of lactoferrin to [2] | ED50 (Escherichia coli c 11 [6]; [11]) | ED50 (Escherichia coli c 11 [6]; [12]) | other results
CC1(C)S[C@@H]2[C@H](NC(=O)[C@H](N)c3ccccc3)C(=O)N2[C@H]1C(=O)O [ampicillin] | 0.300 mg/mouse | 0.148 mg/mouse | 1/2 | – | – | – | – | – | colony quantity, Lactoferrin (-) ([1]; ampicillin 0.01 mg/mouse): 100,704 CFU/kidney; colony quantity, Lactoferrin (+) ([1]; ampicillin 0.01 mg/mouse with lactoferrin 1 mg per mouse): 58 CFU/kidney; colony count ratio, lactoferrin (+) to (-) ([1]; ampicillin 0.01 mg/mouse): 1/1736; colony quantity, Lactoferrin (-) ([1]; ampicillin 0.1 mg/mouse): 63,216 CFU/kidney; colony quantity, Lactoferrin (+) ([1]; ampicillin 0.1 mg/mouse with lactoferrin 1 mg per mouse): 36 CFU/kidney; colony count ratio, lactoferrin (+) to (-) ([1]; ampicillin 0.1 mg/mouse): 1/1756; colony quantity, Lactoferrin (-) ([1]; ampicillin 1.0 mg/mouse oral twice daily for two days, ICR mice, kidneys on day 3): 88 CFU/kidney; colony quantity, Lactoferrin (+) ([1]; ampicillin 1.0 mg/mouse with lactoferrin 1 mg per mouse): 0 CFU/kidney; colony count ratio, lactoferrin (+) to (-) ([1]; ampicillin 1.0 mg/mouse): <1/88
N[C@@H](C(=O)N[C@@H]1C(=O)N2C(C(=O)O)=C(Cl)CS[C@H]12)c1ccccc1 [cefaclor] | 1.790 mg/mouse | 0.058 mg/mouse | 1/3 | 0.75 mg/mouse | 0.38 mg/mouse | 1/2 | – | – | ED50 (Escherichia coli c 11 [3]): 1.510 mg/mouse; ED50 (Escherichia coli c 11 [4]): 1.846 mg/mouse; blood levels of the antibiotics with versus without lactoferrin [5, 10]: virtually the same
CC1=C(C(=O)O)N2C(=O)[C@@H](NC(=O)[C@H](N)c3ccccc3)[C@H]2SC1 [cefalexin] | 0.402 mg/mouse | 0.185 mg/mouse | 1/2 | 8.54 mg/mouse | 1.42 mg/mouse | 1/4 | – | – | blood levels of the antibiotics with versus without lactoferrin ([5]; mouse, in vivo, po): virtually the same
C=CC1=C(C(=O)O)N2C(=O)[C@@H](NC(=O)/C(=N\OCC(=O)O)c3csc(N)n3)[C@H]2SC1 [cefixime] | 0.519 mg/mouse | 0.177 mg/mouse | 1/3 | 1.03 mg/mouse | 0.23 mg/mouse | 1/4 | – | – | blood levels of the antibiotics with versus without lactoferrin [5, 10]: virtually the same
COC1=C(C(=O)O)N2C(=O)[C@@H](NC(=O)[C@H](N)C3=CCC=CC3)[C@H]2SC1 [cefroxadine] | 0.606 mg/mouse | 0.312 mg/mouse | – | 1.27 mg/mouse | 0.42 mg/mouse | 1/3 | – | – | blood levels of the antibiotics with versus without lactoferrin [5, 10]: virtually the same
O=C(N[C@H](CO)[C@H](O)c1ccc([N+](=O)[O-])cc1)C(Cl)Cl [chloramphenicol] | – | – | – | – | – | – | 5.11 mg/mouse | 1.94 mg/mouse | potentiation of efficacy of the chemotherapy by lactoferrin (Escherichia coli c 11 [6]): potentiated the efficacy
O=C(O)c1cn(C2CC2)c2cc(N3CCNCC3)c(F)cc2c1=O [ciprofloxacin] | – | – | – | – | – | – | 0.200 mg/mouse | 0.214 mg/mouse | –
CC[C@H]1OC(=O)[C@H](C)[C@@H](O[C@H]2C[C@@](C)(OC)[C@@H](O)[C@H](C)O2)[C@H](C)[C@@H](O[C@@H]2O[C@H](C)C[C@H](N(C)C)[C@H]2O)[C@](C)(O)C[C@@H](C)C(=O)[C@H](C)[C@@H](O)[C@]1(C)O [erythromycin] | – | – | – | – | – | – | – | – | potentiation of efficacy of the chemotherapy by lactoferrin (Escherichia coli c 11 [6]): potentiated the efficacy
CN(C)c1ccc(O)c2c1C[C@H]1C[C@H]3[C@H](N(C)C)C(O)=C(C(N)=O)C(=O)[C@@]3(O)C(O)=C1C2=O [minocycline] | – | – | – | – | – | – | 1.859 mg/mouse | 0.631 mg/mouse | –
CC1COc2c(N3CCN(C)CC3)c(F)cc3c(=O)c(C(=O)O)cn1c23 (stereo not shown) [ofloxacin] | – | – | – | – | – | – | 0.231 mg/mouse | 0.251 mg/mouse | –
NC1CCN(c2nc3c(cc2F)c(=O)c(C(=O)O)cn3-c2ccc(F)cc2F)C1 (stereo not shown) [tosfloxacin] | – | – | – | – | – | – | 0.013 mg/mouse | 0.009 mg/mouse | –
gentamicin | – | – | – | – | – | – | 0.608 mg/mouse | 0.610 mg/mouse | –
